Test results from US20220281930A1, “COMPOSITIONS AND METHODS FOR THE TREATMENT OF PATHOLOGICAL PAIN AND ITCH” (DUKE UNIVERSITY, priority 2019, published 2022).

How the values were obtained:
KCC2 promoter = assay: KCC2-LUC luciferase primary screen in primary cortical neurons; type: cell-based, mouse; settings: rank score, 100 nM, 48 h
Method: Cytosine arabinoside ([…]) was added to cultures on the second day after seeding [2 d in vitro (DIV)] to inhibit the proliferation of non-neuronal cells. Cell suspension was plated at a density of 1×10^6 cells/ml onto 24-well tissue-culture dishes coated with poly-d-lysine.
LUC activity was then determined for each compound. Culture supernatant was removed and cells were lysed with 150 μl lysis buffer (Targeting Systems CA, USA cat. CLR1). LUC activity was measured with a RedLuciferase Assay kit (Targeting Systems cat. FLAR) according to the manufacturer's instructions. A Veritas microplate luminometer was used to measure luminescence; for each treatment triplicates of 40 μl cell lysates (from each 24-well tissue-culture dish) were used and 25 μl substrate was injected per well. […] Relative Light units (RLU) for each treatment was derived from Light Units (compound treatment)/vehicle treatment (0.5% DMSO).
The primary screen encompassed three levels of LUC measurements. […] Each compound was ranked based on composite scores from primary and secondary screening.

KCC2 mRNA = assay: Secondary screen: KCC2 RT-qPCR in primary mouse neurons; type: cell-based; settings: rank score
Method: (§1) The primary screen encompassed three levels of LUC measurements. The first level of screening yielded a total of 137 compounds with cut-off RLU>125% LUC activity. These 137 compounds were subject to second round of screening, which was carried out in duplicate independent assays to yield the top 103 compounds sorted for highest RLU. The 103 compounds were then subjected to a third round of screening carried out in duplicate independent assays to yield the top 40 compounds which were again ranked. The best 22 of these 40 compounds (ranked for highest RLU activity) were subjected to secondary screening: Cultured neurons were treated with the 22 compounds; RT-qPCR and Clomeleon imaging methodologies (Yeo et al., 2009, J Neurosci 29:14652-14662) were used to determine effects of compounds on KCC2 mRNA expression and [Cl—]i, respectively. Each compound was ranked based on composite scores from primary and secondary screening.
Total RNA was isolated from cultured cell samples using Directzol RNA miniprep kit (ZymoResearch). The protocol includes DNAse digestion to exclude genomic DNA from preparations. Total RNA (1 μg) was reverse transcribed using oligo primers (dT) and SuperScriptIII first-strand synthesis kit (Invitrogen). Gene expression was assessed by quantitative real-time PCR using 2×SYBR Green Master Mix (Qiagen) and a three-step cycling protocol (anneal at 60° C./elongate at 72° C., denature at 95° C.). Specificity of primers was verified by dissociation/melting curve for the amplicons when using SYBR Green as a detector. All reactions were performed in triplicates. The amount of target messenger RNA (mRNA) in the experimental group relative to that in the control was determined from the resulting fluorescence and threshold values (Ct) using the ΔΔCt method. βIII-tubulin was used as housekeeping gene.
oligodT-initiated reverse transcription of 1 μg total RNA, DNA-se treated, was subjected to RT-qPCR using primers specific for KCC2 for rat and KCC2 for human sequences, normalized for neuronal βIII-tubulin, as previously described (Yeo et al., 2009, J Neurosci 29:14652-14662). For cultured neurons, total RNA was extracted from pelleted cells, and for spinal cord tissue it was extracted from microdissected lumbar spinal cord dorsal horn.
(§2) To identify KCC2 gene expression enhancing compounds, cultured primary cortical neurons were cultured from KCC2-luciferase(LUC)-knockin (KCC2-LUCki) mice (Liedtke et al., 2013, Small 9:1066-1075; Yeo et al., 2013, Proc Natl Acad Sci USA 110:4315-4320) and used LUC metrics as readout for activity of the proximal KCC2 promoter (2.5 kB (Yeo et al., 2009, J Neurosci 29:14652-14662)), which drives LUC in this mouse transgenic line. A Z′ factor of 0.94 was obtained. This strategy will not select for long-range enhancers of KCC2 gene expression that act outside the 2.5 kB core KCC2 promoter. 1057 compounds, contained in two NCI libraries (FIG. 1), related to inhibition of growth of malignantly transformed cells were screened. Iterative screening followed by measurements of KCC2 mRNA (RT-qPCR) and intracellular chloride ([Cl—]i), using clomeleon chloride indicator protein (Kuner and Augustine, 2000, Neuron 27:447-459; Yeo et al., 2009, J Neurosci 29:14652-14662), led to decreasing numbers of confirmed and re-confirmed hits, and 4 “winner” compounds were selected (FIG. 1 and Table 3).

[1] = tested on: intracellular chloride ([Cl—]i); assay: Secondary screen: Clomeleon chloride imaging in primary mouse neurons; type: cell-based; set-up: chloride reduction (%): concentration or dose not given beside the values; settings: for Clomeleon Score (duplicates): rank score; for chloride reduction (%): from the [Cl—]i pair of the same line; for chloride [Cl—]i mM: value after compound, control => treated
Method: as §1
Chloride imaging of primary cultured cortical neurons was conducted as previously described (Kuner and Augustine, 2000, Neuron 27:447-459; Liedtke et al., 2013, Small 9:1066-1075; Yeo et al., 2009, J Neurosci 29:14652-14662). A Clomeleon expression plasmid was transfected into primary cortical neurons by electroporation (Amaxa Nucleofector Device). Transfected neurons were verified by yellow fluorescent protein (YFP) fluorescence, and ratiometric images (excitation at λ=434 nm, dual emission at λ=485 and 535 nm; for resting chloride, six stable frames at […] were captured, which were averaged) were acquired using RATIOTOOL program. Calibration of Clomeleon signals (535 nm/485 nm emission ratio) was performed by using tributyltin-nigericin to establish a standard curve, which was then normalized for measured intraneuronal pH to take into account the pH sensitivity of Clomeleon.
as §2

KCC2 = assay: Composite score from primary and secondary screening; type: cell-based, mouse; settings: for Top two hits / Aggregate Score: Mechanistic Compounds; for Aggregate Score / Total Score: sum of the three scores
Method: as §1, §2

Compound | Luciferase Score (triplicates) (KCC2 promoter; Natural Compounds) | Luciferase Score (triplicates) (KCC2 promoter; Mechanistic Compounds) | chloride reduction (%) [1] | chloride [Cl—]i mM [1] | other results
COc1cc2c(c(OC)c1OC)-c1ccc(OC)c(=O)cc1[C@@H](NC(C)=O)CC2 [colchicine] | 10 |  |  |  | 
CC1(C)C(O)OC(O)C1(C)C (stereo not shown) [3,3,4,4-tetramethyloxolane-2,5-diol, 3,3,4,4-tetramethyl-oxolane-2,5-diol] |  | 6 |  |  | 
CC(=O)N1CCN(c2ccc(OCC3COC(Cn4ccnc4)(c4ccc(Cl)cc4Cl)O3)cc2)CC1 (stereo not shown) [ketoconazole] | 9 |  |  |  | 
Cc1ccc(NC(=O)c2cccc([N+](=O)[O-])c2O)c(C)c1 [NSC79456, n-(2,4-Dimethylphenyl)-2-hydroxy-3-nitrobenzamide] |  | 1 | 32.4% | 74 => 24 mM | RT-QPCR Score (triplicates) (KCC2 mRNA; Mechanistic Compounds): 3; Clomeleon Score (duplicates) ([1]; Mechanistic Compounds): 1; Top two hits (KCC2): winner; Aggregate Score (KCC2): 5
Cc1cc(-c2nc3ccccc3s2)ccc1N [4-(1,3-Benzothiazol-2-yl)-2-methylaniline] |  | 4 | 46.3% | 82 => 38 mM | RT-QPCR Score (triplicates) (KCC2 mRNA; Mechanistic Compounds): 5; Clomeleon Score (duplicates) ([1]; Mechanistic Compounds): 4; Aggregate Score (KCC2): 13
COc1ccc(C(=O)O[C@H]2CC[C@@]3(C)[C@@H]4CC[C@H]5[C@]6(O)C[C@H](O)[C@@]7(O)[C@@H](CN8C[C@@H](C)CC[C@H]8[C@@]7(C)O)[C@]6(O)C[C@@]53O[C@]24O)cc1OC [veratridine] | 7 |  |  |  | 
COc1ccc(C[C@H]2NC[C@H](O)[C@H]2OC(C)=O)cc1 [anisomycine] | 3 |  | 57.3% | 75 => 43 mM | RT-QPCR Score (triplicates) (KCC2 mRNA; Natural Compounds): 4; Clomeleon Score (duplicates) ([1]; Natural Compounds): 6; Total Score (KCC2; Natural Compounds): 13
COc1cc([C@@H]2c3cc4c(cc3[C@H](O[C@@H]3O[C@@H]5COC(c6ccccc6)O[C@H]5[C@H](O)[C@H]3O)[C@H]3COC(=O)[C@H]23)OCO4)cc(OC)c1OC (stereo partly shown) [proresidor] | 9 |  |  |  | 
CC(=O)C1CCCC(=O)C=CC(=O)O1 (stereo not shown) [NSC180515, 2-Acetyl-2,3,4,5-tetrahydrooxonine-6,9-dione] | 4 |  | 32% | 68 => 22 mM | RT-QPCR Score (triplicates) (KCC2 mRNA; Natural Compounds): 1; Clomeleon Score (duplicates) ([1]; Natural Compounds): 1; Top 2 hits (KCC2; Natural Compounds): winner; Total Score (KCC2; Natural Compounds): 6
CC(=O)Nc1ccc(-c2nc3ccccc3s2)cc1 [NSC33006, N-[4-(1,3-benzothiazol-2-yl)phenyl]acetamide] |  | 2 | 37.8% | 74 => 28 mM | RT-QPCR Score (triplicates) (KCC2 mRNA; Mechanistic Compounds): 1; Clomeleon Score (duplicates) ([1]; Mechanistic Compounds): 2; Top two hits (KCC2): winner; Aggregate Score (KCC2): 5
CC(=O)/C(=C\c1cccc([N+](=O)[O-])c1)C(=O)Nc1ccccc1C [(2E)-N-(2-methylphenyl)-2-[(3-nitrophenyl)methylidene]-3-oxobutanamide] |  | 5 |  |  | 
COc1cc2c3c(c4ccc(OC)c(OC)c4c2cc1OC)CN1CCC[C@H]1C3 [tylocrebrine] | 5 |  | 52% | 75 => 39 mM | RT-QPCR Score (triplicates) (KCC2 mRNA; Natural Compounds): 3; Clomeleon Score (duplicates) ([1]; Natural Compounds): 4; Total Score (KCC2; Natural Compounds): 12
N=C1N=CN=C2C([C@@H]3O[C@H](CO)[C@@H](O)[C@H]3O)=CN=C12 [9-Deazaadenosine] |  | 2 | 48.8% | 82 => 40 mM | RT-QPCR Score (triplicates) (KCC2 mRNA; Mechanistic Compounds): 4; Clomeleon Score (duplicates) ([1]; Mechanistic Compounds): 5; Aggregate Score (KCC2): 11
CC(O)CCC(=O)c1ccoc1 (stereo not shown) [4-Ipomeanol] |  | 3 | 43.2% | 74 => 32 mM | RT-QPCR Score (triplicates) (KCC2 mRNA; Mechanistic Compounds): 2; Clomeleon Score (duplicates) ([1]; Mechanistic Compounds): 3; Aggregate Score (KCC2): 8
CC1(C)CCC[C@]2(C)C3=C(CC[C@@H]12)C(=O)OC3 [confertifoline] | 1 |  | 56% | 75 => 42 mM | RT-QPCR Score (triplicates) (KCC2 mRNA; Natural Compounds): 5; Clomeleon Score (duplicates) ([1]; Natural Compounds): 5; Total Score (KCC2; Natural Compounds): 11
NC(=O)c1cn(C2OC(CO)C(O)C2O)c2ncnc(N)c12 (stereo not shown) [Sauzivamycin] |  | 6 |  |  | 
C[C@@]12C(=O)OC(=O)[C@]1(C)[C@H]1CC[C@@H]2O1 [cantharidine] | 6 |  | 48.5% | 68 => 33 mM | RT-QPCR Score (triplicates) (KCC2 mRNA; Natural Compounds): 6; Clomeleon Score (duplicates) ([1]; Natural Compounds): 3; Total Score (KCC2; Natural Compounds): 15
